Test results published in US8394828B2 (Janssen Pharmaceutica, NV, priority 2003, dated 2013).
Values joined by “and” are separate entries in the source; they are usually repeats but may differ in a detail not shown here. Equal entries are not always repeated. Where two headings read alike, the source gives them in different places.

Legend:
human VR1 [1] = target: T1, human VR1 (Homo sapiens, UniProt Q8NER1); assay: Human VR1 [3H] RTX binding assay; conditions: for Ki: hVR1; for inhibition at 1 µM: compound at 1 μM
T1 construct: expressed in transfected cells; host or cells: HEK293
Method: Compounds of the present invention were tested for their ability to inhibit the binding of [^3H] RTX to hVR1 receptors in a [^3H]
HEK293 cells were transfected with human VR1 vanilloid receptors and washed with Hank's Balanced Salt Solution, dissociated with cell dissociation buffer (Sigma), and then centrifuged at 1000×g for 5 min. […] The pelleted membranes were kept in an −80° C. freezer.
Approximately 120 μg protein/ml from membranes were incubated with indicated concentrations of [^3H] RTX in 0.5 ml of the HEPES buffer (pH 7.4) containing 0.25 mg/mL fatty acid-free bovine serum albumin at 37° C. for 60 min. […] The tip of the microcentrifuge tube containing the pellet was cut off. Bound radioactivity was quantified by scintillation counting. Non-specific binding was tested in the presence of 200 nM unlabeled RTX.

human VR1 [2] = target: T1, human VR1; assay: Human VR1 functional assay (intracellular Ca++, FLIPR, capsaicin challenge); format: cell-based
Method: The functional activity of the test compounds was determined by measuring changes in intracellular calcium concentration using a Ca^++-sensitive fluorescent dye and FLIPR™ technology.
EC50 or IC50 values were determined from dose-response studies.

[3] = 3H-RTX binding, read-out: 3H-RTX binding assay Ki hVR1
[4] = hVR1, capsaicin challenge, read-out: FLIPR functional assay IC50 hVR1
[5] = FLIPR functional assay IC50 hVR1 60 min, 60 min
[6] = 3H-RTX binding assay Ki hVR1, 3H-RTX binding

T1 sequence (Q8NER1 whole entry): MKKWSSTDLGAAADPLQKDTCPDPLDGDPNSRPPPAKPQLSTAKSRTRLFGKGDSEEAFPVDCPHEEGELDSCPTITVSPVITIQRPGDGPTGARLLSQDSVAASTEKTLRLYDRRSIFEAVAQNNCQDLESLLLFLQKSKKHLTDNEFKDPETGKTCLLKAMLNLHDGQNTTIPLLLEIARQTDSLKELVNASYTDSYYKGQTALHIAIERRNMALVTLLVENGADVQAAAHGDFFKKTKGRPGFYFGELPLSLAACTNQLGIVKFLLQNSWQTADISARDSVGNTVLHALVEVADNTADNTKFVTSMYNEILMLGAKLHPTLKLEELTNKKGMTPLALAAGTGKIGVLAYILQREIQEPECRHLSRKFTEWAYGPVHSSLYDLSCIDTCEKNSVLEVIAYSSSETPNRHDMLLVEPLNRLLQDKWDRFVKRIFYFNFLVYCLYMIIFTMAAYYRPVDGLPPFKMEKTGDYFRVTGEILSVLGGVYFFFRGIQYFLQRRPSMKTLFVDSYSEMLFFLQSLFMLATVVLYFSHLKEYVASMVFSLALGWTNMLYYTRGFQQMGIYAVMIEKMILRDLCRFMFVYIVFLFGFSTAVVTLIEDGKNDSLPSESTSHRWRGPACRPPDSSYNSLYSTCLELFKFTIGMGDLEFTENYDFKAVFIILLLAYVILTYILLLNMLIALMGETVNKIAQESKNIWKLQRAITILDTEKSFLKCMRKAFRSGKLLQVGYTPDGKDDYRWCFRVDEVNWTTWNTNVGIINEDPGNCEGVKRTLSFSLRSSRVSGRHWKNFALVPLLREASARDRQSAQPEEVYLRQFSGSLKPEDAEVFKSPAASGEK

Row | Ki (human VR1 [1]; [3]) | IC50 (human VR1 [2]; [4]) | inhibition at 1 µM (human VR1 [1]; 3H-RTX binding) [%] | IC50 (human VR1 [2]; [5]) [µM] | SMILES | Ki (human VR1 [1]; [6]) [µM]
1 | 0.0132 µM and 0.015 µM | 1.1 µM and 10 µM |  |  | CCCCC(C)c1ccc(C(=O)Nc2cnc3ccccc3c2)cc1 (centres unmarked) | 
2 | 0.0456 µM | 0.185 µM | 105 | 0.22 | O=C(Nc1cnc2ccccc2c1)c1ccc(N2CC[C@@H]3CCCC[C@@H]3C2)cc1 (relative stereo) [cis-4-(Octahydro-isoquinolin-2-yl)-N-quinolin-3-yl-benzamide] | 
3 | 0.0368 µM | 0.42 µM | 99 |  | O=C(Nc1cnc2ccccc2c1)c1ccc(N2CC[C@@H]3CCCC[C@@H]3C2)nc1 (relative stereo) [cis-6-(Octahydro-isoquinolin-2-yl)-N-quinolin-3-yl-nicotinamide] | 
4 | 0.0332 µM | 0.085 µM | 104 |  | O=C(Nc1cnc2ccccc2c1)c1ccc(N2CC[C@@H]3CCCC[C@H]3C2)nc1 (relative stereo) [trans-6-(Octahydro-isoquinolin-2-yl)-N-quinolin-3-yl-nicotinamide] | 
5 |  | 3.15 µM | 1 |  | CC(=O)N1CCc2cc(C(=O)Nc3cnc4ccccc4c3)ccc21 [1-Acetyl-2,3-dihydro-1H-indole-5-carboxylic acid quinolin-3-ylamide] | 
6 |  | 1.45 µM | 3 |  | O=C(Nc1cnc2ccccc2c1)c1ccc2c(c1)CCN2C(=O)c1ccccc1 [1-Benzoyl-2,3-dihydro-1H-indole-5-carboxylic acid quinolin-3-ylamide] | 
7 |  | 1.8 µM | 2 |  | CCCC(=O)N1CCc2cc(C(=O)Nc3cnc4ccccc4c3)ccc21 [1-Butyryl-2,3-dihydro-1H-indole-5-carboxylic acid quinolin-3-ylamide] | 
8 |  | 1.5 µM | 25 |  | O=C(Nc1cnc2ccccc2c1)c1ccc2c(c1)CCN2C(=O)C1CCCCC1 [1-Cyclohexanecarbonyl-2,3-dihydro-1H-indole-5-carboxylic acid quinolin-3-ylamide] | 
9 | 0.00487 µM | 0.044 µM | 103 | 0.074 | O=C(Nc1cnc2ccccc2c1)c1ccc2c(c1)CCN2C1CCCCC1 [1-Cyclohexyl-2,3-dihydro-1H-indole-5-carboxylic acid quinolin-3-ylamide] | 
10 | 0.364 µM | 8 µM |  |  | CC(C)n1c(C(F)(F)F)nc2cc(C(=O)Nc3cnc4ccccc4c3)ccc21 [1-Isopropyl-2-trifluoromethyl-1H-benzoimidazole-5-carboxylic acid quinolin-3-ylamide] | 
11 | 0.341 µM | 0.69 µM | 79 |  | CN1CCCc2cc(C(=O)Nc3cnc4ccccc4c3)ccc21 [1-Methyl-1,2,3,4-tetrahydro-quinoline-6-carboxylic acid quinolin-3-ylamide] | 
12 |  | 0.9 µM | 12 |  | CN1CCc2cc(C(=O)Nc3cnc4ccccc4c3)ccc21 [1-Methyl-2,3-dihydro-1H-indole-5-carboxylic acid quinolin-3-ylamide] | 
13 | 0.0156 µM | 0.41 µM | 93 |  | CCCN1CCc2cc(C(=O)Nc3cnc4ccccc4c3)ccc21 [1-Propyl-2,3-dihydro-1H-indole-5-carboxylic acid quinolin-3-ylamide] | 
14 |  | 10.5 µM | 1 |  | O=C(Nc1cnc2ccccc2c1)c1ccc2c(c1)CCN2 [2,3-Dihydro-1H-indole-5-carboxylic acid quinolin-3-ylamide] | 
15 |  | 10 µM | 40 |  | CCCCCNc1ccc(C(=O)Nc2cnc3ccccc3c2)c(Cl)c1 [2-Chloro-4-pentylamino-N-quinolin-3-yl-benzamide] | 
16 | 1.12 µM | 1.6 µM | 79 | 5 | CCCCCCCNc1ccccc1C(=O)Nc1cnc2ccccc2c1 [2-Heptylamino-N-quinolin-3-yl-benzamide] | 
17 | 0.0205 µM | 4.3 µM |  | 0.14 | O=C(Nc1cnc2ccccc2c1)c1ccc(N2CCCCC2)nc1 [3,4,5,6-Tetrahydro-2H-{1,2′}bipyridinyl-5′-carboxylic acid quinolin-3-ylamide] | 
18 | 0.512 µM | 1.2 µM | 61 |  | O=C(CCc1ccc2c(c1)CCN2CC1CCCCC1)Nc1cnc2ccccc2c1 [3-(1-Cyclohexylmethyl-2,3-dihydro-1H-indol-5-yl)-N-quinolin-3-yl-propionamide] | 
19 | 0.264 µM | 0.48 µM | 59 |  | CCCn1ccc2cc(CCC(=O)Nc3cnc4ccccc4c3)ccc21 [3-(1-Propyl-1H-indol-5-yl)-N-quinolin-3-yl-propionamide] | 

Row | Ki (human VR1 [1]; [3]) | IC50 (human VR1 [2]; [4]) | inhibition at 1 µM (human VR1 [1]; 3H-RTX binding) [%] | IC50 (human VR1 [2]; [5]) [µM] | SMILES | Ki (human VR1 [1]; [6]) [µM]
20 | 1.07 µM | 1.06 µM | 51 |  | CCCN1CCc2cc(CCC(=O)Nc3cnc4ccccc4c3)ccc21 [3-(1-Propyl-2,3-dihydro-1H-indol-5-yl)-N-quinolin-3-yl-propionamide] | 
21 | 0.0941 µM | 0.67 µM |  | 0.035 | O=C(CCc1ccc(CC2CCCCC2)cc1)Nc1cnc2ccccc2c1 [3-(4-Cyclohexylmethyl-phenyl)-N-quinolin-3-yl-propionamide] | 
22 | 0.428 µM |  |  | 5.2 | CCCCCc1ccc(C=CC(=O)Nc2cnc3ccccc3c2)cc1 [3-(4-Pentyl-phenyl)-N-quinolin-3-yl-acrylamide] | 
23 | 0.181 µM |  |  | 0.59 | CCCCCc1ccc(CCC(=O)Nc2cnc3ccccc3c2)cc1 [3-(4-Pentyl-phenyl)-N-quinolin-3-yl-propionamide] | 
24 | 0.0139 µM | 1.2 µM |  |  | CCC(C)c1ccc(CCC(=O)Nc2cnc3ccccc3c2)cc1 (centres unmarked) [3-(4-sec-Butyl-phenyl)-N-quinolin-3-yl-propionamide] | 
25 | 0.142 µM | 8.8 µM | 82 |  | CCCCCCCN(C)c1cccc(C(=O)Nc2cnc3ccccc3c2)c1 [3-(Heptyl-methyl-amino)-N-quinolin-3-yl-benzamide] | 
26 | 0.262 µM | 0.5 µM | 72 |  | CCCCCN(C)c1cccc(C(=O)Nc2cnc3ccccc3c2)c1 [3-(Methyl-pentyl-amino)-N-quinolin-3-yl-benzamide] | 
27 |  | 3.2 µM | 1 |  | O=C(Nc1cnc2ccccc2c1)c1cccc(NC2CCCCC2)c1 [3-Cyclohexylamino-N-quinolin-3-yl-benzamide] | 
28 | 0.107 µM |  | 93 | 0.26 | CCCCCN(CCCCC)c1cccc(C(=O)Nc2cnc3ccccc3c2)c1 [3-Dipentylamino-N-quinolin-3-yl-benzamide] | 
29 |  | 10 µM | 20 |  | CCCCCCCNc1cccc(C(=O)Nc2cnc3ccccc3c2)c1 [3-Heptylamino-N-quinolin-3-yl-benzamide] | 
30 | 0.158 µM | 10 µM |  |  | O=C(CCc1ccc2c(c1)CCC2)Nc1cnc2ccccc2c1 [3-Indan-5-yl-N-quinolin-3-yl-propionamide] | 
31 | 0.0379 µM | 0.054 µM | 107 |  | CCCCCN(C)c1ccc(C(=O)Nc2cnc3ccccc3c2)cc1C [3-Methyl-4-(methyl-pentyl-amino)-N-quinolin-3-yl-benzamide] | 
32 | 0.0735 µM | 0.78 µM | 81 | 0.012 | CCCCCNc1ccc(C(=O)Nc2cnc3ccccc3c2)cc1C [3-Methyl-4-pentylamino-N-quinolin-3-yl-benzamide] | 
33 |  | 2.7 µM | 12 |  | CCCCCNc1cccc(C(=O)Nc2cnc3ccccc3c2)c1 [3-Pentylamino-N-quinolin-3-yl-benzamide] | 
34 | 0.192 µM | 0.18 µM | 90 |  | CN(CCc1ccccc1)c1ccc(CCC(=O)Nc2cnc3ccccc3c2)cc1 [3-[4-(Methyl-phenethyl-amino)-phenyl]-N-quinolin-3-yl-propionamide] | 
35 | 0.052 µM | 0.32 µM | 93 |  | CCC(C)(C)c1cc(OC)c(CCC(=O)Nc2cnc3ccccc3c2)c(OC)c1 [3-{4-(1,1-Dimethyl-propyl)-2,6-dimethoxy-phenyl}-N-quinolin-3-yl-propionamide] | 
36 | 0.0315 µM | 0.57 µM |  |  | CC(C)(c1ccc(CCC(=O)Nc2cnc3ccccc3c2)cc1)C1CCCCC1 [3-{4-(1-Cyclohexyl-1-methyl-ethyl)-phenyl}-N-quinolin-3-yl-propionamide] | 
37 | 0.111 µM | 0.354 µM |  |  | CN(Cc1ccccc1)c1ccc(CCC(=O)Nc2cnc3ccccc3c2)cc1 [3-{4-(Benzyl-methyl-amino)-phenyl}-N-quinolin-3-yl-propionamide] | 

Row | SMILES | Ki (human VR1 [1]; [3]) | IC50 (human VR1 [2]; [4]) | inhibition at 1 µM (human VR1 [1]; 3H-RTX binding) [%] | IC50 (human VR1 [2]; [5]) [µM] | Ki (human VR1 [1]; [6]) [µM]
38 | CCCCCN1CCCc2cc(C(=O)Nc3cnc4ccccc4c3)ccc21 [1-Pentyl-1,2,3,4-tetrahydro-quinoline-6-carboxylic acid quinolin-3-ylamide] |  | 1.6 µM | 93 | 0.47 | 0.0391
39 | CCCCCn1ccc2cc(C(=O)Nc3cnc4ccccc4c3)ccc21 [1-Pentyl-1H-indole-5-carboxylic acid quinolin-3-ylamide] |  |  | 95 | 0.15 | 0.0631
40 | CCCCC(C)(C)c1cc(OC)c(CCC(=O)Nc2cnc3ccccc3c2)c(OC)c1 [3-{4-(1,1-Dimethyl-pentyl)-2,6-dimethoxy-phenyl}-N-quinolin-3-yl-propionamide] |  | 1 µM | 96 |  | 0.0106
